US12110279B2, “Triazolones, tetrazolones, and imidazolones, or their salts, and pharmaceutical compositions comprising the same” (Yuhan Corporation, priority 2021, dated 2024)
Where a name gives a salt, the structure may show the parent alone. Read-outs that look alike come from different tables or passages of the source.

How the values were obtained:
Type in all cases: biochemical
[1] = biological target: T1, recombinant human MAO-A (monoamine oxidase-A) (Homo sapiens, UniProt P21397); test: Amplex Red HRP-coupled amine oxidase activity evaluation, recombinant human MAO-A; settings: substrate 0.5 mM tyramine; read-out: Inhibitory Activity (IC50, nM) MAO-A
T1 construct: purchased Sigma-Aldrich
T1 sequence (P21397 1-527): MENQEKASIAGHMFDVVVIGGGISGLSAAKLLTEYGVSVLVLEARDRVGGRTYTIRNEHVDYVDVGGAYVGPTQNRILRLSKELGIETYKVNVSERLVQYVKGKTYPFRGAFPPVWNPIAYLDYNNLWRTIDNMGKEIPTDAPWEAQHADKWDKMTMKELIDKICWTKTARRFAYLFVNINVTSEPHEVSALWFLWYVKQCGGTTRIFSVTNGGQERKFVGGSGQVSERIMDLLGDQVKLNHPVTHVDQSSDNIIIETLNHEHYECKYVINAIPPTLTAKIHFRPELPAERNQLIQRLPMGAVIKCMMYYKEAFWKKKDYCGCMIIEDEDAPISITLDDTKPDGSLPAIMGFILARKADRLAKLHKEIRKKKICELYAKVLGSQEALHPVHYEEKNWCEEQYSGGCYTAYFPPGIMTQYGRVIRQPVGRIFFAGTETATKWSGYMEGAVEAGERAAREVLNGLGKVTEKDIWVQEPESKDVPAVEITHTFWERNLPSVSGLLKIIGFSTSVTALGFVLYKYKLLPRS
Procedure: [The source words this procedure for another target and says it was used here with some conditions changed.] (§1) The compounds according to the present technology were evaluated in terms of activity on recombinant human VAP-1 (R&D systems) by measuring the level of hydrogen peroxide in horseradish peroxidase (HRP)-coupled reaction using Amplex Red Hydrogen Peroxide Assay Kit (Molecular Probes, Invitrogen, USA). The experiment was carried out at room temperature using benzylamine as a substrate. In the HRP-coupled reaction, hydrogen peroxide oxidation of 10-acetyl-3,7-dihydroxyphenoxazine (Amplex Red reagent) produces resorufin, which is a highly fluorescent compound. Briefly, the test compound was dissolved in dimethyl sulfoxide (DMSO) at a concentration of 20 mM. The dose-response assessment was made by 1:3 serial dilution in DMSO, thereby creating an 8-point curve. The concentration of the upper part was controlled according to the efficacy of the compounds, followed by dilution with a reaction buffer solution to obtain a final DMSO concentration of less than 1%. To each well of a 96 black well plate, human VAP-1 purified in 50 mM sodium phosphate buffer solution (pH7.4) was added. The test compounds dissolved in DMSO were incubated with the human VAP-1 enzymes at 37° C. for 30 minutes. After 30-minute incubation, each well was added with a reaction mixture containing 200 uM Amplex Red reagent prepared from 50 mM sodium phosphate buffer solution (pH 7.4), 1 mM benzylamine, and 1 U/mL HRP. Fluorescence intensity was measured at several time points during 1-2 hours using a microplate reader (Flexstation3, Molecular Devices) under the wavelength condition exciting at 544 nm and reading the emission at 590 nm. The inhibitory effect of the compounds was measured as a decrease (%) in the signal rate as compared to the control group without any inhibitor (only diluted DMSO). Data was fixed to a logistic model with four variables and IC50 value was calculated using GraphPad Prism program.

[2] = biological target: T2, recombinant human VAP-1 (Homo sapiens, UniProt Q16853); test: Amplex Red HRP-coupled amine oxidase activity evaluation, recombinant human VAP-1; settings: substrate 1 mM benzylamine; 30 min preincubation at 37° C.; read-out: Inhibitory Activity (IC50, nM) human VAP-1
T2 construct: purchased R&D systems
T2 sequence (Q16853 1-763): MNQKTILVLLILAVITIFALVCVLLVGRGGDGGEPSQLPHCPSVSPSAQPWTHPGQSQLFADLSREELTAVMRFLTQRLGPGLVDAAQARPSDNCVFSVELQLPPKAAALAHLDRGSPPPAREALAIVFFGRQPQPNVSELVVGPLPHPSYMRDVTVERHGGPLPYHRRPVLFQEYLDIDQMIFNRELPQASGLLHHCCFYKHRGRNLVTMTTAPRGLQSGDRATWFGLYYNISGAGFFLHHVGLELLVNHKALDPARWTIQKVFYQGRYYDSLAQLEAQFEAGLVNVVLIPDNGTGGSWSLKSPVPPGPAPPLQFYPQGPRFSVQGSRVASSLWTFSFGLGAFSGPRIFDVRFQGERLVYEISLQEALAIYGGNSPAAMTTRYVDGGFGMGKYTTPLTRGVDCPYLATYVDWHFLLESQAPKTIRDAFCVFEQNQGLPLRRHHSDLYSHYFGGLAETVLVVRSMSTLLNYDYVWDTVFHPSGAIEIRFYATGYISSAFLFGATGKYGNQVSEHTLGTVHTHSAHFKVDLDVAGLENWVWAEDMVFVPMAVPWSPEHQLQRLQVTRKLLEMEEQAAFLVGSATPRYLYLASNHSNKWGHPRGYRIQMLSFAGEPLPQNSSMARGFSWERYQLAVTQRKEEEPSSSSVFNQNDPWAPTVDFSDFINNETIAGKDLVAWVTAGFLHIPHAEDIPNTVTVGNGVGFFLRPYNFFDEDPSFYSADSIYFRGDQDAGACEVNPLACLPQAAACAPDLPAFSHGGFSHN
Procedure: as §1

[3] = biological target: T3, recombinant human DAO (diamine oxidase) (Homo sapiens, UniProt P19801); test: Amplex Red HRP-coupled amine oxidase activity evaluation, recombinant human DAO
T3 construct: purchased R&D systems
T3 sequence (P19801 20-751): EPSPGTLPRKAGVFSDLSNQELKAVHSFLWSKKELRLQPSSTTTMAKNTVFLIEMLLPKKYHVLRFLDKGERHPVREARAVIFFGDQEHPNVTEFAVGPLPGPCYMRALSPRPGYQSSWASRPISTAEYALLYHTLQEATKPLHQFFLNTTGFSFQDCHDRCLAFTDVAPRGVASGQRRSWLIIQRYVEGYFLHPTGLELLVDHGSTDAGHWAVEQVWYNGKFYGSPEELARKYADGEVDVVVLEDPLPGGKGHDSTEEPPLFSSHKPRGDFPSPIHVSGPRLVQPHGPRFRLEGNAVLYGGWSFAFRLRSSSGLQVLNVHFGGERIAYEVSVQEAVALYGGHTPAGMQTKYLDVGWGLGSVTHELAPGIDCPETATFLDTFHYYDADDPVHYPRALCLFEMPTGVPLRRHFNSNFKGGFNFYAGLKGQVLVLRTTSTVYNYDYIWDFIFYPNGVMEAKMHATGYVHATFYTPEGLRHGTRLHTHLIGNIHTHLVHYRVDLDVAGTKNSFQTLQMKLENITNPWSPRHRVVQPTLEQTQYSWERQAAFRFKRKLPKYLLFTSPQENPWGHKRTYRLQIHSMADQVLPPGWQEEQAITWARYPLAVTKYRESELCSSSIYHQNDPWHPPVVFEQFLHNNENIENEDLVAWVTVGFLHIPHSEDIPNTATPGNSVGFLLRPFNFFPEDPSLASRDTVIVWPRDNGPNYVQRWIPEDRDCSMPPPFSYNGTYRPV
Procedure: [The source words this procedure for another target and says it was used here with some conditions changed.] as §1

[4] = biological target: T4, recombinant human MAO-B (monoamine oxidase-B) (Homo sapiens, UniProt P27338); test: Amplex Red HRP-coupled amine oxidase activity evaluation, recombinant human MAO-B; settings: substrate 1 mM benzylamine; read-out: Inhibitory Activity (IC50, nM) MAO-B
T4 construct: purchased Sigma-Aldrich
T4 sequence (P27338 1-520): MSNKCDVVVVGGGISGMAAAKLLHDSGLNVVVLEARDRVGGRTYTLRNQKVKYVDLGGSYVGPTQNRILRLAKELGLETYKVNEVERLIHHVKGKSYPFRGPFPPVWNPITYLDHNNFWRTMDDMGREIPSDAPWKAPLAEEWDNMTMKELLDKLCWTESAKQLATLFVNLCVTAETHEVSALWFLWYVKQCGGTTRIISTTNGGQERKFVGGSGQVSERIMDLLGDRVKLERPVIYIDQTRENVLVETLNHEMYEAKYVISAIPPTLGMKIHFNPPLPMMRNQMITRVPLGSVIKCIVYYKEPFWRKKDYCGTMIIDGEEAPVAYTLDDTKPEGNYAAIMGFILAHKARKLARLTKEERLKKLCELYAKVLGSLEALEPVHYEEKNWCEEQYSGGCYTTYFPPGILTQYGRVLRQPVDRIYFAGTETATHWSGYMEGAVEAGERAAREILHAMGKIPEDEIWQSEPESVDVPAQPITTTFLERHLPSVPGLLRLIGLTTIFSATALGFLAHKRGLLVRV
Procedure: [The source words this procedure for another target and says it was used here with some conditions changed.] as §1

[5] = substrate 1 mM putrescine, read-out: Inhibitory Activity (IC50, nM) DAO

Row | Compound | IC50 [1] | IC50 [2] | IC50 [3, 5] | IC50 [4] | IC50 [3]
1 | CCn1cc(-c2ccc(Cn3c(C)nn(CC(CN)=C(F)F)c3=O)s2)ccc1=O [Example 4, 5-[5-[[1-[2-(aminomethyl)-3,3-difluoro-allyl]-3-methyl-5-oxo-1,2,4-triazol-4-yl]methyl]-2-thienyl]-1-ethyl-pyridin-2-one trifluoroacetate] | > 100000 nM | 1.5 nM | > 100000 nM | > 100000 nM | 
2 | Cc1nn(CC(CN)=C(F)F)c(=O)n1Cc1ccc(-c2ccc(N(C)C)nc2)s1 [Example 5, 2-[2-(aminomethyl)-3,3-difluoro-allyl]-4-[[5-[6-(dimethylamino)-3-pyridyl]-2-thienyl]methyl]-5-methyl-1,2,4-triazol-3-one trifluoroacetate] | > 100000 nM | 2 nM | > 100000 nM | > 100000 nM | 
3 | Cc1nn(CC(CN)=C(F)F)c(=O)n1Cc1ccc(-c2ccc3c(c2)OCO3)s1 [Example 6, 2-[2-(aminomethyl)-3,3-difluoro-allyl]-4-[[5-(1,3-benzodioxol-5-yl)-2-thienyl]methyl]-5-methyl-1,2,4-triazol-3-one trifluoroacetate] | > 100000 nM | 2.5 nM | > 100000 nM | > 100000 nM | 
4 | Cc1cc(-c2ccc(Cn3c(C)nn(CC(CN)=C(F)F)c3=O)s2)cc2c1NC(=O)CC2 [Example 7, 6-[5-[[1-[2-(aminomethyl)-3,3-difluoro-allyl]-3-methyl-5-oxo-1,2,4-triazol-4-yl]methyl]-2-thienyl]-8-methyl-3,4-dihydro-1H-quinolin-2-one trifluoroacetate] | > 100000 nM | 1 nM | > 100000 nM | > 100000 nM | 
5 | Cc1nn(CC(CN)=C(F)F)c(=O)n1Cc1ccc(-c2ccc3c(c2)CCC(=O)N3C)s1 [Example 8, 6-[5-[[1-[2-(aminomethyl)-3,3-difluoro-allyl]-3-methyl-5-oxo-1,2,4-triazol-4-yl]methyl]-2-thienyl]-1-methyl-3,4-dihydroquinolin-2-one trifluoroacetate] | > 100000 nM | 1 nM | > 100000 nM | > 100000 nM | 
6 | CCn1cc(-c2ccc(-n3nnn(CC(CN)=C(F)F)c3=O)s2)ccc1=O [Example 9, 5-[5-[4-[2-(aminomethyl)-3,3-difluoro-allyl]-5-oxo-tetrazol-1-yl]-2-thienyl]-1-ethyl-pyridin-2-one trifluoroacetate] | > 100000 nM | 0.4 nM | 3.1 nM | 203 nM | 
7 | CS(=O)(=O)c1ccc(-c2cccc(-n3nnn(CC(CN)=C(F)F)c3=O)c2)cc1 [Example 10, 1-[2-(aminomethyl)-3,3-difluoro-allyl]-4-[3-(4-methylsulfonylphenyl)phenyl]tetrazol-5-one trifluoroacetate] | > 100000 nM | 0.4 nM |  | 53200 nM | 2.2 nM
8 | NCC(Cn1nnn(-c2cccc(-c3ccc(N4CCNCC4)cc3)c2)c1=O)=C(F)F [Example 11, 1-[2-(aminomethyl)-3,3-difluoro-allyl]-4-[3-(4-piperazin-1-ylphenyl)phenyl]tetrazol-5-one trifluoroacetate] | > 100000 nM | 7 nM |  | > 100000 nM | 351 nM

Results, then the molecule that gave them:

Row | IC50 [1] | IC50 [2] | IC50 [3, 5] | IC50 [4] | IC50 [3] | Compound
9 | > 100000 nM | 1.7 nM | > 100000 nM | > 100000 nM |  | CCn1cc(-c2ccc(Cn3c(C)nn(CC(CN)=C(F)F)c3=O)s2)cn1 [Example 1, 2-[2-(aminomethyl)-3,3-difluoro-allyl]-4-[[5-(1-ethylpyrazol-4-yl)-2-thienyl]methyl]-5-methyl-1,2,4-triazol-3-one trifluoroacetate]
10 | > 100000 nM | 1.8 nM | > 100000 nM | > 100000 nM |  | Cc1nn(CC(CN)=C(F)F)c(=O)n1Cc1ccc(-c2ccc(S(C)(=O)=O)cc2)s1 [Example 2, 2-[2-(aminomethyl)-3,3-difluoro-allyl]-5-methyl-4-[[5-(4-methylsulfonylphenyl)-2-thienyl]methyl]-1,2,4-triazol-3-one trifluoroacetate]
11 | > 100000 nM | 18 nM | > 100000 nM | > 100000 nM |  | Cc1nn(CC(CN)=C(F)F)c(=O)n1Cc1ccc(-c2ccc(N3CCNCC3)cc2)s1 [Example 3, 2-[2-(aminomethyl)-3,3-difluoro-allyl]-5-methyl-4-[[5-(4-piperazin-1-ylphenyl)-2-thienyl]methyl]-1,2,4-triazol-3-one di-trifluoroacetate]
